The record followed here is patent US20220017971A1, “COMPOSITION FOR PREDICTING CHEMOTHERAPY RESISTANCE OF OVARIAN CANCER AND USE THEREOF” (KOOKMIN UNIVERSITY INDUSTRY ACADEMY COOPERATION FOUNDATION, priority 2020, published 2022).

Holding throughout (format): cell-based
Data set [1] concerns ES2 cells. Nature of the data set: Cell proliferation capacity using BrdU, ES2. As to conditions: for proliferative capability (BrdU incorporation): agent alone; for proliferative capability reduced by cisplatin (BrdU): combined treatment with cisplatin; for proliferative capability reduced by paclitaxel (BrdU): combined treatment with paclitaxel. The method, then: (§1) Epithelial ovarian cancer OV90 and ES2 cells were cultured in 6 wells, and a non-specific control and target oligonucleotide were transfected using Lipofectamine 2000 (Invitrogen). All oligonucelotides were synthesized by to Bioneer. Oligonucleotide and Lipofectamine 2000 were diluted in Opti-MEM reduced serum medium (Gibco, Cat No: 32985070) and then treated with cells. After 6 h of incubation at 37° C. in a 5% CO2 incubator, the medium was replaced with a medium containing FBS.
(§2) An experiment was performed according to the manufacturer's manual using the BrdU kit (Cat No: 1167229001, Roche) to confirm the change in the proliferation ability of epithelial ovarian cancer cells. After 48 hours of incubation, 10 μM BrdU was additionally added to each well and incubated for 2 hours at 37° C./5% CO2 in an incubator. After labeling the epithelial ovarian cancer cells with BrdU and fixing the cells, they were incubated with anti-BrdU-POD solution at room temperature for 90 minutes, and then washed three times. Finally, the cells were reacted with 100 μl of 3,3′, 5,5′-tetramethylbenzidine substrate, and the cell proliferation ability was analyzed by measuring the absorbance at 370 nm and 492 nm using an ELISA reader.

The test system of data set [2] is PCNA. Nature of the data set: PCNA expression (qPCR, immunofluorescence), ES2. To be noted: ES2 cells; for PCNA expression: anticancer drug alone; for PCNA expression reduced by cisplatin: combined treatment with cisplatin. The method, then:
(§3) cDNA was synthesized from 1 μg of RNA using AccuPower RT PreMix (Bioneer, Daejeon, Korea). Gene expression was measured using SYBR Green (Sigma) and the StepOnePlus Real-Time PCR system (Applied Biosystems, Foster City, Calif.). PCR conditions were incubated at 95° C. for 3 minutes, then 95° C. 30 seconds, 60° C. 30 seconds, and 72° C. 3 minutes conditions were amplified 40 times, and normalized based on the GAPDH expression level.
(§4) Transfected epithelial ovarian cancer cells were fixed with methanol for 10 minutes and treated with PCNA antibody diluted in 1:100. After that, after washing twice with PBS containing 0.1% bovine serum albumin (BSA), the secondary antibody goat anti-mouse IgG Alexa 488 (catalog number: A11017, Invitrogen, Carlsbad, Calif.) was added to antibody dilution buffer so as to be diluted in 1:200 and incubated for 1 hour at room temperature.
(§5) After washing the cells with 0.1% BSA-PBS, DAPI staining was additionally performed to allow simultaneous observation of the target protein as well as the nucleus. After finishing the experiment, cells were observed and photographed using an LSM710 (Carl Zeiss, Thornwood, N.Y., USA) confocal microscope.

Data set [3] has as its system PCNA. Nature of the data set: PCNA expression (qPCR, immunofluorescence), OV90. As to conditions: OV90 cells; for PCNA expression: anticancer drug alone; for PCNA expression reduced by cisplatin: combined treatment with cisplatin. The method, then: as §3, §4, §5
For data set [4], the system named is OV90 cells. Description: Cell proliferation capacity using BrdU, OV90. As to conditions: for proliferative capability (BrdU incorporation): agent alone; for proliferative capability reduced by cisplatin (BrdU): combined treatment with cisplatin; for proliferative capability reduced by paclitaxel (BrdU): combined treatment with paclitaxel. Here is the method: as §1, §2

In data set [5] the test system is ES2 cells. Nature of the data set: Mitochondrial membrane potential by JC-1 staining, ES2. Here is the method: (§6) JC-1 mitochondrial membrane potential (MMP) changes were measured using a mitochondria staining kit (Cat No: CS0390, Sigma-Aldrich). 5×10^5 ES2 and OV90 cells were each aliquoted into 6 wells, and the cells were cultured until 70 to 80% abundance of the culture dish appeared. Thereafter, the miR-214-3p inhibitor was dose-dependently treated and cultured in a 37° C./5% CO2 incubator for 48 hours. Thereafter, cells were collected from the culture dish using trypsin and centrifuged to obtain a cell pellet. Cells were dissolved in JC-1 staining solution and incubated for 20 minutes at 37° C./5% CO2 incubator. The stained cells were centrifuged again, washed with 1×JC-1 staining buffer, and then fluorescence intensity was analyzed using a flow cytometer.

Data set [6] relates to OV90 cells. Nature of the data set: Mitochondrial membrane potential by JC-1 staining, OV90. Here is the method: as §6
The subject of data set [7] is ES2 cells. Description: Cell cycle analysis using propidium iodide staining, ES2. To be noted: 48 hours. The method, then:
(§7) In order to confirm the cell cycle change of ovarian cancer cells by the miR-214-3p inhibitor, 5×10^5 cells were cultured in 6 wells until 70 to 80% abundance appeared. Thereafter, miR-214-3p inhibitors were treated in a dose-dependent manner (10, 20, 40 nM) and cultured in a 37° C./5% CO2 incubator for 48 hours. Then, using trypsin, the cells were removed from the culture dish, washed with PBS, and the cells were slowly mixed using 1 mL of 1× binding buffer, and then centrifuged to obtain a cell pellet.
(§8) Next, the cells were suspended and cultured with 200 μL of 1× binding buffer, put in 100 μL in a brown 1.5 mL tube, and 5 μL of RNase and 5 μL of PI were mixed together to stain the cells for 1 hour at room temperature. After that, 400 μL of 1× binding buffer was added, the stained solution was transferred to a 5 mL FACS tube, and the fluorescence intensity was analyzed using a flow cytometer to measure the number of cells corresponding to each cell cycle.

For data set [8], the system named is OV90 cells. Description: Cell cycle analysis using propidium iodide staining, OV90. To be noted: 48 hours. Here is the method: as §7, §8
The subject of data set [9] is OV90 cells. Description: Intracellular calcium concentration by fluo-4 staining, OV90. The method, then: (§9) To check the intracellular calcium concentration of ovarian cancer cells, 3 μM of fluo-4 acetoxymethyl ester (AM) (Invitrogen) was used. First, 5×10^5 cells were cultured in 6 wells. Thereafter, the miR-214-3p inhibitor was dose-dependently treated and cultured in a 37° C./5% CO2 incubator for 48 hours. After that, cells were removed from the culture dish using trypsin, washed with PBS, and stained with 3 μM fluo-4 in an incubator at 37° C./5% CO2 for 20 minutes, washed with PBS, and then the stained solution was transferred into a FACS tube and the fluorescence intensity was analyzed using a flow cytometer to […].

The subject of data set [10] is LHX6. Description: LHX6 gene expression after oligonucleotide transfection (qPCR), OV90. As to conditions: OV90 cells. Here is the method: as §3, §1
(§10) Next, to analyze whether miR-214-3p can alter the characteristics of epithelial ovarian cancer cells, OV90 and ES2 cells, epithelial ovarian cancer cell lines, were transfected with a mimic for miR-214 and an inhibitor for miR-214-3p (SEQ ID NO: 2: 5′-ACUGCCUGUCUGUGCCUGCUGU-3′).

For data set [11], the system named is ES2 cells. Description: Intracellular ROS measurement using DCFH-DA, ES2. Here is the method: (§11) ES2 and OV90 cells were collected through trypsin and centrifuged to obtain a cell pellet. After washing once with PBS, 10 μM of DCFH-DA was incubated in an incubator at 37° C. for 30 minutes. Thereafter, the cells were washed twice with PBS, and a miR-214-3p inhibitor was added thereto and incubated in an incubator at 37° C. for 1 hour. Treated cells were washed again with PBS and analyzed for DCF fluorescence intensity using flow cytometry.

The subject of data set [12] is LHX6. Description: LHX6 gene expression after oligonucleotide transfection (qPCR), ES2. As to conditions: ES2 cells. Here is the method: as §3, §1, §10
For data set [13], the system named is ES2 cells. Nature of the data set: Apoptosis by annexin V and propidium iodide staining, ES2. The method, then: (§12) In order to confirm the change in the apoptosis effect of epithelial ovarian cancer cells, an experiment was performed using the FITC Annexin V cell death diagnostic kit I (BD Biosciences). Using trypsin, the cells were removed from the culture dish, washed with PBS, and the cells were slowly mixed using 1 mL of 1× binding buffer and then centrifuged to obtain a cell pellet.
(§13) Next, the cells were suspended and cultured with 200 μL of 1× binding buffer, put into 100 μL of a brown 1.5 mL tube, and cells were mixed with 5 μL of Annexin V and 5 μL of PI, and then stained at room temperature for 15 minutes. After that, 400 μL of 1×binding buffer was added and the stained solution was transferred to a 5 mL FACS tube, and then the fluorescence intensity was analyzed using a flow cytometer to measure the number of apoptotic cells.

In data set [14] the test system is OV90 cells. Description: Apoptosis by annexin V and propidium iodide staining, OV90. The method, then:
as §12, §13

Data set [15] relates to OV90 cells. Nature of the data set: Intracellular ROS measurement using DCFH-DA, OV90. Here is the method:
as §11

Data set [16] relates to OV90 cells. Nature of the data set: Cell migration, OV90.
For data set [17], the system named is ES2 cells. Description: Intracellular calcium concentration by fluo-4 staining, ES2. The method, then: as §9
Data set [18] deals with ES2 cells. Nature of the data set: Cell migration, ES2.
Where [19] appears, read: combined treatment with paclitaxel.

In the case of `N.N.[Cl][Pt][Cl]` [cisplatin], the “proliferative capability (BrdU incorporation)” value in data set [1] and in data set [4] was “reduced” in each case. The PCNA expression entry in data set [2] and in [3] was “significantly reduced” each time.
Consider `CC(=O)O[C@H]1C(=O)[C@@]2(C)[C@H]([C@H](OC(=O)c3ccccc3)[C@]3(O)C[C@H](OC(=O)[C@H](O)[C@@H](NC(=O)c4ccccc4)c4ccccc4)C(C)=C1C3(C)C)[C@]1(OC(C)=O)CO[C@@H]1C[C@@H]2O` [paclitaxel], for which the “proliferative capability (BrdU incorporation)” value in data set [1] and in [4] was “reduced” throughout. Besides, the PCNA expression entry in data set [2] and in data set [3] was “reduced” throughout.
With “miR-214-3p inhibitor: inhibitor for miR-214-3p (SEQ ID NO: 2: 5′-ACUGCCUGUCUGUGCCUGCUGU-3′) (ACUGCCUGUCUGUGCCUGCUGU; listed as RNA, chemistry not given here)”, the mitochondrial membrane potential result in [5] and in data set [6] was “induced a change” each time. The “sub-G1 of the cell cycle” value in data set [7] and in [8] was “increasing” in each case. Besides, the “proliferative capability (BrdU incorporation)” value in data set [1] and in data set [4] was “inhibit the proliferative capability” in each case. In addition, the “proliferative capability reduced by cisplatin (BrdU)” value in [1] and in data set [4] was “further reduced” each time. The “proliferative capability reduced by paclitaxel (BrdU)” value in data set [1] and in data set [4] was “further reduced” throughout. Also, the intracellular calcium ions result in data set [9] and in [17] was “increased” throughout. Also, the “expression of the target gene LHX6” value in [10] and in data set [12] was “increased” throughout. Moreover, the reactive oxygen species result in [11] and in data set [15] was “increased” each time. The “PCNA expression reduced by cisplatin” value in data set [2] and in [3] was “further decreased” throughout. Besides, the “PCNA expression reduced by paclitaxel” value in data set [2] (setting [19]) and in data set [3] (setting [19]) was “further decreased” each time. For the same molecule, the “increase of apoptotic cells” value turned out to be 1.7 fold in data set [13] (40 nM, p<0.001) and 2.6 fold in data set [14] (40 nM, p<0.001). In addition, the “apoptotic cell death compared to the control group” value in data set [13] (transfection) and in data set [14] (transfection) was “significantly increased” each time. The cell migration entry in data set [16] and in data set [18] was “reduced” throughout.
With “siLHX6: siRNA that inhibits the expression of LHX6 (SEQ ID NO: 3 sense 5′-GAG UCA UCC UUU UUC AGU A-3′, SEQ ID NO: 4 antisense) (sense GAGUCAUCCUUUUUCAGUA; antisense UACUGAAAAAGGAUGACUC; listed as RNA, chemistry not given here)”, the “increase of proliferative levels” value in data set [1] (40 nM) and in [4] (40 nM) was 1.4 fold each time. Besides, the “proliferative capability (BrdU incorporation)” value in [1] and in data set [4] was “significantly increased” in each case. For the same molecule, the “proliferative capability reduced by cisplatin (BrdU)” value in [1] and in data set [4] was “restored” in each case. The “proliferative capability reduced by paclitaxel (BrdU)” value in [1] and in data set [4] was “restored” in each case. Also, the “PCNA expression reduced by cisplatin” value in data set [2] and in data set [3] was “restored” throughout. In addition, the “mRNA and protein level expression of PCNA” value is given as “significantly increased” in data set [2] (qPCR and immunofluorescence); “significantly increased” in data set [3] (qPCR and immunofluorescence).
